Measured values from PMC4532830, “Crystal structure, biochemical and cellular activities demonstrate separate functions of MTH1 and MTH2” (Nature Communications, 2015).
Where two headings read alike, the source gives them in different places.

How the values were obtained:
MTH1 = molecular target: T1, MTH1 (Homo sapiens, UniProt P36639); details: pH 7.5 but methods buffer pH 8.0, 10 mM Mg acetate, unit assumed
T1 construct: gene NUDT1

NUDT18 = molecular target: T2, NUDT18 (Homo sapiens, UniProt Q6ZVK8); assay: phosphate release, malachite green assay; type: biochemical; details: 50 uM nucleotide, 25 nM enzyme, 22 C, 30 min, pH 8.0, 10 mM Mg acetate; which of 8-oxo-dGTP or 8-oxo-dGDP belongs to NUDT18 is not spelt out
T2 construct: recombinant, cDNA codon-optimized for E. coli in pET28a(+); His-tag removed by TEV or thrombin
T2 sequence (Q6ZVK8 1-323): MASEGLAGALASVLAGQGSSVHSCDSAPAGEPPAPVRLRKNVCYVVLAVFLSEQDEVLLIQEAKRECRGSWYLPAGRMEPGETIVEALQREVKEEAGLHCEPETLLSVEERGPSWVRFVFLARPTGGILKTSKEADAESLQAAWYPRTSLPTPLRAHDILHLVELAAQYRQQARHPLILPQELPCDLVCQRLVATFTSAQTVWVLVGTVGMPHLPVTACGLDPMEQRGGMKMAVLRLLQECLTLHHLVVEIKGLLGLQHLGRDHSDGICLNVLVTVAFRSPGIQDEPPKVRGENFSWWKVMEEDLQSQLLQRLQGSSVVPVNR

[1] = molecular target: the molecule itself; assay: SEC; 10/300 GL S75 column, 20 mM HEPES pH 7.5, 300 mM NaCl, 10% glycerol, 0.5 mM TCEP; 0.24 mg NUDT15 in 500 ul

Molecule: Nc1nc2c(ncn2[C@H]2C[C@H](O)[C@@H](COP(=O)(O)OP(=O)(O)OP(=O)(O)O)O2)c(=O)[nH]1 [dGTP, 2′-Deoxyguanosine-5′-triphosphate]
- Km (MTH1; 0-400 uM dGTP, 2 nM enzyme): 110 ± 35 µM

Molecule: Nc1nc2c([nH]c(=O)n2[C@H]2C[C@H](O)[C@@H](COP(=O)(O)OP(=O)(O)OP(=O)(O)O)O2)c(=O)[nH]1 [8-oxo-dGTP]
- Km (MTH1; 0-100 uM 8-oxo-dGTP, 0.25 nM enzyme): 10.2 ± 0.8 µM

Molecule: Nc1nc2c([nH]c(=O)n2[C@H]2C[C@H](O)[C@@H](COP(=O)(O)OP(=O)(O)O)O2)c(=O)[nH]1 [8-oxo-dGDP]
- phosphate release, malachite green assay (NUDT18): NUDT15 and NUDT18 have the ability to hydrolyse 8-oxo-dGTP or 8-oxo-dGDP in biochemical assays

B1: NUDT15 (enzyme, human, UniProt Q9NV35 1-164, looked up)
chain: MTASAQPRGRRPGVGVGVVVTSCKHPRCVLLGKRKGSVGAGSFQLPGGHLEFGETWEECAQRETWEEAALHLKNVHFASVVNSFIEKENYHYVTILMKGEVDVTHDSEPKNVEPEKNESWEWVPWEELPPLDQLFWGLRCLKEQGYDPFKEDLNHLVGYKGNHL
notes: NUDT15 (MTH2), human, full length; expression construct pNIC28hNUDT15 from the Structural Genome Consortium; The His-tag was removed by TEV protease or thrombin; Crystals grew in the presence of alpha-chymotrypsin, so the chain in the crystal may be shorter than full length; also called MTH2; MutT homologue 2; source: E. coli BL21 (DE3) T1R pRARE2, purified (HisTrap HP, gel filtration Superdex 75)
- stoichiometry N [1]: 2
